Source: patent US20140235774A1, “FLUORESCENT COMPOUND, METHOD FOR PRODUCING THE SAME, AND FLUORESCENT RESIN COMPOSITION” (Shin-Etsu Chemical Co., Ltd., priority 2013, published 2014)
Converted amounts (≈) assume the structure as drawn.

Assays:
Format in all cases: physicochemical
[1] = Solubility in transparent silicone resin SIM-360 base compound (portion-wise addition until transparent); details: for solubility in the SIM-360 base compound: room temperature, with stirring
Description: Into a glass vial, 10.1 mg of Compound 1 produced in Example 1 was weighed and added with a transparent silicone resin, the SIM-360 base compound (produced by Shin-Etsu Chemical Co., Ltd.) portion-wise at room temperature with stirring. Dissolution was determined when the solution turned transparent. The solubility was calculated to be 1 mmol/L. To this mixture, 10% by mass of a curing agent was added on the basis of the base compound and mixed. After defoaming, the mixture was heated at 150° C. for 30 minutes to be cured, giving a fluorescent silicone resin composition. It was possible to change the concentration of Compound 1 freely as long as the concentration was less than or equal to the above-described concentration.

[2] = Fluorescent spectrum in solvent
Description: (§1) The ultraviolet-visible absorption spectrum and the fluorescent spectrum of Compound 1 were measured in ethanol. The longest absorption maximum wavelength was 359 nm, the molar absorbance coefficient was 6.50×10^4, and the maximum fluorescent wavelength was 410 nm (excitation wavelength: 359 nm).
(§2) The ultraviolet-visible absorption spectrum and the fluorescent spectrum of Compound 2 were measured in ethanol. The longest absorption maximum wavelength was 359 nm, the molar absorbance coefficient was 7.88×10^4, and the maximum fluorescent wavelength was 410 nm (excitation wavelength: 359 nm).
as §1, with “3” for “1”, “tetrahydrofuran.” for “ethanol.”, “363” for “359”, “2.65×10^4,” for “6.50×10^4,”, “413” for “410”
as §1, with “4” for “1”, “tetrahydrofuran.” for “ethanol.”, “363” for “359”, “2.83×10^4,” for “6.50×10^4,”, “413” for “410”, “363 nm)” for “359 nm).”

[3] = Ultraviolet-visible absorption spectrum in solvent
Description: as §1, §2
as §1, with “3” for “1”, “tetrahydrofuran.” for “ethanol.”, “363” for “359”, “2.65×10^4,” for “6.50×10^4,”, “413” for “410”
as §1, with “4” for “1”, “tetrahydrofuran.” for “ethanol.”, “363” for “359”, “2.83×10^4,” for “6.50×10^4,”, “413” for “410”, “363 nm)” for “359 nm).”

[4] = in ethanol, excitation wavelength 359 nm
[5] = in tetrahydrofuran, excitation wavelength 363 nm

solubility in the SIM-360 base compound (result in words) ([1]; measured as in Example 6)	SMILES	solubility in the SIM-360 base compound [1] [µM]	maximum fluorescent wavelength [2, 4] [nm]	longest absorption maximum wavelength ([3]; in ethanol) [nm]	molar absorbance coefficient ([3]; in ethanol)	maximum fluorescent wavelength [2, 5] [nm]	longest absorption maximum wavelength ([3]; in tetrahydrofuran) [nm]	molar absorbance coefficient ([3]; in tetrahydrofuran)
–	Cc1ccc(N(c2ccc(C)cc2)c2ccc(-c3ccc(N(c4ccc(-c5ccc(N(c6ccc(C)cc6)c6ccc(C)cc6)cc5)cc4)c4cccc([Si](C)(O[Si](C)(C)C)O[Si](C)(C)C)c4)cc3)cc2)cc1 [Compound 1, N,N-bis[4′-(N′,N′-di-4-tolylamino)biphenyl-4-yl]-3-(1-trimethylsiloxy-1,3,3,3-tetramethyldisiloxan-1-yl)aniline]	1000 (≈ 1010 µg/mL)	410	359	6.50×10^4	–	–	–
–	C[Si](C)(C)O[Si](C)(O[Si](C)(C)C)c1cccc(N(c2ccccc2)c2ccc(-c3ccc(N(c4ccccc4)c4ccc(-c5ccc(N(c6ccccc6)c6ccc(-c7ccc(N(c8ccccc8)c8cccc([Si](C)(O[Si](C)(C)C)O[Si](C)(C)C)c8)cc7)cc6)cc5)cc4)cc3)cc2)c1 [Compound 2, N,N′-bis[phenyl-3-(1-trimethylsoxy-1,3,3,3-tetramethyldisiloxan-1-yl)phenylaminobiphenyl-4′-yl]-N,N-diphenylbenzidine]	500 (≈ 708 µg/mL)	410	359	7.88×10^4	–	–	–
–	C[Si](C)(C)O[Si](C)(O[Si](C)(C)C)c1cccc(N(c2ccc(-c3ccc(N(c4ccccc4)c4ccc(-c5ccc(N(c6ccccc6)c6ccccc6)cc5)cc4)cc3)cc2)c2ccc(-c3ccc(N(c4ccccc4)c4ccc(-c5ccc(N(c6ccccc6)c6ccccc6)cc5)cc4)cc3)cc2)c1 [Compound 3, N,N-bis[4′-(N′-phenyl-N′-4′-diphenylaminobiphenyl-4-yl)biphenyl-4-yl]-3-(1-trimethylsiloxy-1,3,3,3-tetramethyldisiloxan-1-yl)aniline]	100 (≈ 144 µg/mL)	–	–	–	413	363	2.65×10^4
–	C[Si](C)(C)O[Si](C)(C)c1cccc(N(c2ccc(-c3ccc(N(c4ccccc4)c4ccc(-c5ccc(N(c6ccccc6)c6ccccc6)cc5)cc4)cc3)cc2)c2ccc(-c3ccc(N(c4ccccc4)c4ccc(-c5ccc(N(c6ccccc6)c6ccccc6)cc5)cc4)cc3)cc2)c1 [Compound 4, N,N-bis[4′-(N′-phenyl-N′-4′-diphenylaminobiphenyl-4-yl)biphenyl-4-yl]-3-(pentamethyldisiloxan-1-yl)aniline]	100 (≈ 136 µg/mL)	–	–	–	413	363	2.83×10^4
not dissolved at all	Cc1cccc(N(c2ccc(-c3ccc(N(c4ccccc4)c4ccc(-c5ccc(N(c6ccccc6)c6ccc(-c7ccc(N(c8cccc(C)c8)c8cccc(C)c8)cc7)cc6)cc5)cc4)cc3)cc2)c2cccc(C)c2)c1 [Compound 6, reference compound]	–	–	–	–	–	–	–
